Results from patent US11453642B2, “Oxygenated amino- or ammonium-containing sulfonic acid, phosphonic acid and carboxylic acid derivatives and their medical use” (GRI BIO, INC., priority 2011, dated 2022).

Test system: Akt phosphorylation on Ser473
Assay: Inhibition of activation of Akt kinase (phospho-Akt Ser473 assay in RBL-2H3 cells)
Type: cell-based, Rat
Settings: IgE and antigen 15 min, normalized to total Akt
Text: The mast cell degranulation assay using the RBL-2H3 cell line (see example 6) was also used to determine the status of the PI3K/Akt axis. Activation of PI3K leads to production of PIP3 on the cytosolic side of the lipid bilayer. Akt is recruited to the PIP3 domain and subsequently activated by phosphorylation on residues Ser473 and Thr308. (Franke et al., Cell 81:727-736, (1995)). Once recruited to the membrane, it is phosphorylated and activated by other kinases (Hemmings, Science 275:628-630 (1997); Hemmings, Science 276:534 (1997); Downward. Science 279:673-674 (1998); Alessi et al., EMBO J. 15:6541-6551 (1996)). Western blotting of the phosphorylated Ser473 residue on Akt (phospho-Akt Ser473) is widely used to assess the level of activation of the PI3K/Akt axis.
All buffers and solutions used for the phosphor-Akt Ser473 assay were from Meso Scale Discovery. Tris Lysis Buffer consisted of 150 mM NaCl, 20 mM Tris, pH 7.5, 1 mM EDTA, 1 mM EGTA and 1% Triton-X-100. Complete Tris Lysis Buffer was prepared prior to use by addition of protease inhibitor, phosphatase inhibitors and PMSF. The 10× Tris Wash Buffer consisted of 500 mM Tris, pH 7.5, 1.5 M NaCl and 0.2% Tween-20. Blocker A was made up of bovine serum albumin in Tris Wash Buffer, Read Buffer T was used according to manufacturer's instructions. The Whole Cell Lysate Kits used were phospho-Akt Ser473 (K111000, Lot K0011749) and total ERK1/2 (K11107D, Lot K0011698) as a loading control.
Protein assay: protein concentration was determined using the BCA (bicinchoninic acid) Protein Assay kit according to the manufacturer's instructions. Briefly, duplicate 10 μl samples of bovine serum albumin (BSA) standards, blank and lysates were incubated in a 96-well plate with 0.2 ml working reagent for 30 min at 37° C. Plates were cooled to room temperature for 5 min and absorbance at 562 nm was measured in a multi-mode plate reader. Protein concentrations were calculated using FlexStation 3 software (SoftMax Pro version 5.3), Protein concentration of lysates was determined from a standard curve (BSA) using a linear curve fit.
Phosphoprotein assay: protein phosphorylation was determined using the MULTI-SPOT® Assay System (Meso Scale Discovery), providing simultaneous detection of phosphorylated and total proteins. Briefly, capture antibodies against phosphorylated and total protein are patterned on distinct spots in the same well of 96-well plates. Sandwich immunoassay and electrochemiluminescence detection technology are combined to measure intensity of the emitted light from phosphorylated and total protein spots. Analysis of phosphor-Akt Ser473 was performed according to the manufacturer's instructions. The optimal amount of protein was determined at 5 μg lysate per well for ERK1/2 and 10 μg/well for phospho-Akt Ser473, Plates were blocked with 25 μl/well Blocker A for 1 h at room temperature with gentle agitation. During this time, the lysates were thawed and diluted to the desired protein concentration in complete Tris Lysis Buffer. Plates were washed four times in Tris Wash Buffer and 25 μl lysate per well added. Plates were incubated for 1-3 h at room temperature with agitation according to the manufacturer's recommendations. Plates were washed four times with Tris Wash Buffer, followed by addition of 25 μl/well of the respective detection antibody and incubation for 1 h at room temperature, with agitation. After a final four washes with Tris Wash Buffer 150 μl/well, Read Buffer T was added and plates read on a SECTOR Imager 6000 plate reader.
The mean background signal from each plate was subtracted from averaged raw data. The amount of total protein phosphorylated was expressed as % phosphoprotein according to the manufacturer's (Meso Scale Discovery) instructions.
Levels of phospho-Akt Ser473 were determined in IgE sensitized and antigen stimulated cells after treatment without (positive control) or with 1, 5 and 25 μM test compound and normalized to levels of total Akt.

Row | SMILES | Level of phospho-Akt Ser473 (1 μM) [% positive control] | Level of phospho-Akt Ser473 (5 μM) [% positive control] | Level of phospho-Akt Ser473 (25 μM) [% positive control]
1 | CCCCCCCCCCCCCCCCN(C)CC(O)CS(=O)(=O)O (stereo not drawn) [Compound 1a, 2-hydroxy-3-(N-methylhexadecylammonio)propane-sulfonate] | 80.8 ± 17.9 | 62.4 ± 16.1 | 9.7 ± 4.9
2 | CCCCCCCCCCCCN(C)CC(O)CS(=O)(=O)O (stereo not drawn) [Compound 1c, 2-hydroxy-3-(N-methyldodecylammonio)propanesulfonate] | 119.7 ± 35.7 | 67.9 ± 17.3 | 17.4 ± 6.4
